Test results as given in patent US20240067639A1, “SMALL MOLECULES THAT TARGET THE RNA THAT CAUSES ALS” (EXPANSION THERAPEUTICS, INC., priority 2020, published 2024).

Assays:
[1] = test system: RAN translation of (G4C2)66-No ATG-GFP in HEK293T cells; assay: Cell-based assay of RAN translation inhibition (GFP/mCherry reporter); conditions: Homo sapiens, HEK-293T; Table G; HEK293T; read-out: RANT IC50
[2] = target: Biotin-labeled RNA (target RNA); assay: BLI affinity measurement (ForteBio Octet RED384); assay type: binding; conditions: Table G
[3] = test system: r(G4C2)^exp; conditions: background statement; cited from earlier work
[4] = test system: cultured cells and induced neurons; conditions: cited from earlier work

| Compound | Kd [2] [µM] | IC50 [1] [µM] | binding to r(G4C2)exp [3] | inhibition of RAN translation and foci formation [4] |
| --- | --- | --- | --- | --- |
| Cc1c2ccncc2cc2c3cc(Oc4ccnc(N)c4)ccc3n(C)c12 [Compound 303, 4-((5,6-dimethyl-6H-pyrido[4,3-b]carbazol-9-yl)oxy)pyridin-2-amine] | 0.18 | > 100 |  |  |
| Cc1c2cc[n+](CCN3CCCCC3)cc2c(C)c2c1[nH]c1ccc(O)cc12 [Compound 1a] |  |  | binds | inhibits RAN translation and foci formation |
| Cc1c2ccnc(C(=O)NCCN)c2cc2c3cc(F)c(F)cc3n(C)c12 [Compound 309, N-(2-aminoethyl)-8,9-difluoro-5,6-dimethyl-6H-pyrido[4,3-b]carbazole-1-carboxamide] | 1.4 | 41 |  |  |
| Cc1c2ccncc2cc2c3cc(C(=O)N[C@@H](C)CN)ccc3n(C)c12 [Compound 281, (S)—N-(1-aminopropan-2-yl)-5,6-dimethyl-6H-pyrido[4,3-b]carbazole-9-carboxamide] | 0.46 | 17 |  |  |
| Cc1c2ccncc2cc2c3cc(OCC[C@@H](C)N)ccc3n(C)c12 [Compound 267, (R)-4-((5,6-dimethyl-6H-pyrido[4,3-b]carbazol-9-yl)oxy)butan-2-amine] | 8 | > 21 |  |  |
| Cc1c2ccncc2cc2c3cc(C(=O)N[C@@H](C)CO)ccc3n(C)c12 [Compound 291, N-[(1S)-2-hydroxy-1-methyl-ethyl]-5,6-dimethyl-pyrido[4,3-b]carbazole-9-carboxamide] | 3.8 | 1.8 |  |  |
| Cc1c2ccnc(C(=O)NCCN)c2cc2c3cc(F)ccc3n(C)c12 [Compound 308, N-(2-aminoethyl)-9-fluoro-5,6-dimethyl-6H-pyrido[4,3-b]carbazole-1-carboxamide] | 0.56 | > 100 |  |  |

Continued, in another order:

| Kd [2] [µM] | Compound | IC50 [1] [µM] | binding to r(G4C2)exp [3] | inhibition of RAN translation and foci formation [4] |
| --- | --- | --- | --- | --- |
| 0.14 | Cc1c2ccncc2cc2c3cc(OC[C@H](C)NC(N)=O)ccc3n(C)c12 [Compound 273, (S)-1-(1-((5,6-dimethyl-6H-pyrido[4,3-b]carbazol-9-yl)oxy)propan-2-yl)urea] | 0.39 |  |  |
| 0.3 | Cc1c2ccncc2cc2c3cc(C(=O)NC[C@@H](C)N(C)C)ccc3n(C)c12 [Compound 294, N-[(2R)-2-(dimethylamino)propyl]-5,6-dimethyl-pyrido[4,3-b]carbazole-9-carboxamide] | 13 |  |  |
| 0.35 | Cc1c2ccncc2cc2c3cc(C(=O)NC[C@@H](C)N)ccc3n(C)c12 [Compound 284, (R)—N-(2-aminopropyl)-5,6-dimethyl-6H-pyrido[4,3-b]carbazole-9-carboxamide] | 1.8 |  |  |
| 0.041 | CN[C@@H](C)COc1ccc2c(c1)c1cc3cnccc3c(C)c1n2C [Compound 276, (S)-1-((5,6-dimethyl-6H-pyrido[4,3-b]carbazol-9-yl)oxy)-N-methylpropan-2-amine] | 12 |  |  |
| 7.7 | CC(=O)N[C@@H](C)COc1ccc2c(c1)c1cc3cnccc3c(C)c1n2C [Compound 272, (S)—N-(1-((5,6-dimethyl-6H-pyrido[4,3-b]carbazol-9-yl)oxy)propan-2-yl)acetamide] | 2 |  |  |
